In patent US8969295B2, “Identifying and modulating molecular pathways that mediate nervous system plasticity” (Massachusetts Institute of Technology, priority 2006, dated 2015):
Entries after “also recorded” stand apart in the source; their conditions may differ.

How the values were obtained:
PKC = settings: Nishiyama et al., 2003; cited from earlier work
cGMP = settings: Leamey et al., 2001; cited from earlier work
binocular portion of V1 = test: Optical imaging of intrinsic signals in V1: ocular dominance after monocular deprivation (MD) with IGF1; type: in vivo, mouse
Method: For monocular deprivation, animals were anesthetized with avertin (0.016 ml/g) and the eyelids of one eye were sutured (at P20-22 for 7 days for imaging experiments). Before imaging, the suture was removed and the deprived eye re-opened. Only animals in which the deprivation sutures were intact and the condition of the deprived eye appeared healthy were used for the imaging session. For DR animals (aged P27-30), the procedure was the same described above, with the exception that the animals were anesthetized in darkness and not exposed to light until deeply anaesthetized; in these mice only the binocular response was evaluated and compared to that in control animals.
Mice (129/SvEv and C57B1/6) aged P26-30 were anesthetized with urethane (1.5 g/Kg) and chlorprothixene (0.2 mg), as described^84. Skin was excised and the skull exposed over V1. A custom-made attachment was used to fix the head and minimize movements. The cortex was covered with agarose solution (1.5%) and a glass cover slip. During the imaging session the animal's body temperature was kept constant with a heating blanket and the EKG monitored constantly. […]
A temporal high pass filter (135 frames) was employed to remove slow noise components, after which the temporal Fast Fourier Transform (FFT) component at the stimulus frequency ([…]) was calculated pixel by pixel from the whole set of images. […]

IGF1 receptor (IGF1R) = test: Immunostaining in V1 after MD with concurrent IGF1; type: in vivo, mouse; settings: short-term (4 days) MD + daily IP IGF1
Method: (§1) In additional experiments in which the effects of short-term (4 days from P23-27) MD were investigated, as well the effects of IGF1 infusion concurrent with MD, a total of four experimental groups were analyzed: a new group of control animals (3 samples), the ipsilateral and the contralateral cortex of mice monocularly deprived for four days (3 samples for the ipsilateral and 3 samples for the contralateral cortex), the contralateral cortex of mice that were monocularly deprived for four days and were injected IP daily with IGF1 solution (3 samples). Tissue was removed and the RNA extracted as described above, and labeled RNA was hybridized to the Affymetrix mouse genome 430.2 chip, which contains oligonucleotides that correspond to a total of 42,000 probes targeting genes and ESTs.
(§2) Mice were anesthetized and transcardially perfused with a solution of 4% paraformaldehyde. The appropriate brain hemispheres were removed and equilibrated in 30% sucrose in PBS. Coronal sections containing visual cortex were cut using a freezing microtome. Immunohistochemistry for GluR1 (1:500, Upstate), IGFBP5 (1:500, USBiological), CaMK2alpha (1:500, Sigma), PhosphoCREB (1:500, Cell Signaling), activated Stat1 (1:500, Abcam), parvalbumin (1:1000, Chemicon), calretinin (1:500, Chemicon), somatostatin (1:300, Chemicon), neuropeptideY (1:400, Chemicon), synapsin 1 (1:500, Chemicon), IGF1 (1:250, Chemicon), GAD 67 (1:400, Chemicon), IGF1R (1:500, Upstate), PI3K—catalytic subunit 110 (1:400, Upstate), phosphorylated-Akt (1:250, Cell Signaling), was carried out as described elsewhere^82,83. For each staining, analysis was repeated in parallel for control and deprived animals. Experiments were carried out at least on two animals for each group and repeated twice. The intensity of staining in sections from control and deprived animals was evaluated with ImageJ software (rsb.info.nih.gov/ij/). Counts of parvalbumin, calretinin, somatostatin and NPY-positive cells were performed as described elsewhere^29.
(§3) For IGF1 treatment, a solution containing GPE, the functional peptide of IGF1, was prepared as described^56: 300 μg of GPE was injected intra-peritoneally daily for the entire period of deprivation. This peptide is referred to as “IGF1” in the Results below.

IGFBP5 [1] = test: Immunostaining in V1 after MD with concurrent IGF1; type: in vivo, mouse; settings: short-term (4 days) MD + daily IP IGF1, cortex contralateral to deprived eye
Method: as §1, §2, §3

[2] = test system: Phosphatidylinositol 3-Kinase (PI3K); test: Immunostaining in V1 after MD with concurrent IGF1; type: in vivo, mouse; settings: short-term (4 days) MD + daily IP IGF1; P<0.05
Method: as §1, §2, §3

phosphorylated-Akt = test: Immunostaining in V1 after MD with concurrent IGF1; type: in vivo, mouse; settings: short-term (4 days) MD + daily IP IGF1
Method: as §1, §2, §3

synapsin 1 = test: Immunostaining in V1 after MD with concurrent IGF1; type: in vivo, mouse; settings: short-term (4 days) MD + daily IP IGF1; P<0.05
Method: as §1, §2, §3

IGFBP5 [3] = test: Microarray analysis of MD+IGF1 animals versus MD animals; type: in vivo, mouse; settings: 4 days MD + daily IP IGF1, contralateral cortex; P<0.01
Method: as §1
(§4) A method for the Significance Analysis of Microarrays to assess changes in gene expression was used^31, and the method was implemented in MATLAB (The Mathworks, Natick, Mass.). The method allows the comparison of the expression level of each gene under two conditions (e.g., MD vs. control; or DR vs. control). […] Correlations between replicates were calculated as correlation coefficients (c.c.) for all conditions: control (c.c.=0.99±0.002), MD 16 days (c.c.=0.9±0.05), MD 4 days contralateral (c.c.=0.99±0.001), MD 4 days ipsilateral (0.99±0.005), MD 4 days contralateral plus IGF1 (c.c.=0.99±0.004). […]

PI3K = test: as above; type: in vivo, mouse; settings: 4 days MD + daily IP IGF1, contralateral cortex; P<0.01
Method: as §1, §4

[4] = test system: visual cortex gene expression; test: Microarray analysis of MD+IGF1 animals versus MD animals, all genes; type: in vivo, mouse; settings: 4 days MD + daily IP IGF1, microarray
Method: as §1, §4

ischemia in the CNS = settings: intra-peritoneal administration; cited from earlier work
[5] = in vivo; cited from earlier work

In the case of `CN(C)CCCn1cc(C2=C(c3c[nH]c4ccccc34)C(=O)NC2=O)c2ccccc21` [GF109203X], the “Effective doses in slices” value (PKC) is given as 10 to 100 µM.
For `O=c1onc2cnc3ccccc3n12` [ODQ], the “effective dose for influencing axon growth” value (cGMP) is given as “about 10 μM”.
In the case of “IGF1: GPE, the functional peptide of IGF1 (tripeptide), referred to as IGF1 in the Results of Example 4 (Insulin-like growth factor I; UniProt P05019 49-51, looked up, fragment)”, the “shift of mean ocular dominance index across animals relative to control” value (binocular portion of V1; 7 days MD + IGF1 i.p., n=3, P>0.2 vs control) is reported as “prevented the shift”, the “ocular dominance shift towards the open eye (ocular dominance distribution of pixels within the binocular zone)” value (binocular portion of V1; 7 days MD during critical period, 300 μg GPE intra-peritoneally daily for the period of deprivation) is reported as “prevented the ocular dominance shift towards the open eye; also recorded: prevents the ocular dominance shift” and the “Expression of the IGF1 receptor (IGF1R), immunostaining in V1” value (IGF1 receptor (IGF1R)) is reported as “partially restored”. For the same compound, the “IGFBP5 immunostaining in V1” value (IGFBP5 [1]) was “no change from normal levels”, the “PI3K expression, immunostaining in V1” value [2] was “fully restored” and the “Expression of phosphorylated-Akt, immunostaining in V1” value (phosphorylated-Akt) was “restored”. The “level of synapsin expression, immunostaining for synapsin 1 in V1” value (synapsin 1) was “significant increase”, the “IGFBP5 microarray expression compared to MD alone” value (IGFBP5 [3]) was “significantly downregulated” and the “PI3K microarray expression compared to MD alone” value (PI3K) was “upregulated”. The “genes significantly altered in expression in MD+IGF1 animals compared to MD animals” value [4] was “only a small fraction of genes was significantly altered”, the “effects of ischemia in the CNS” value (ischemia in the CNS) was “prevents the effects of ischemia in the CNS” and the “ability to cross the blood brain barrier” value [5] was “able to cross the blood brain barrier”.
